Read-outs that look alike come from different tables or passages of the source.
What was measured:
PARP2 [1] = target: T1, PARP2 (Homo sapiens, UniProt Q9UGN5); conditions: cited from earlier work
T1 construct: purchased BPS Bioscience (San Diego, CA)

PARP2 [2] = target: T1, PARP2; assay: PARP2 colorimetric activity assay kit (BPS Bioscience); type: biochemical; conditions: for IC50: dose-response, mean (n = 3) ± SD, r^2 in brackets
Procedure: (§1) The thirty-six 1-oxo-3,4-dihydroisoquinoline-4-carboxamides 3a-aj and 1-oxoisoquinoline-4-carboxamide 11 were tested for inhibitory activity towards PARP1 and PARP2 using the commercially available colorimetric activity assay kit from BPS Bioscience (San Diego, CA) in full accordance of the supplier’s method description[13]^,[14]. The initial screening was performed against PARP1 at 1 µM concentration of each compound, in triplicate (n = 3) measurements.

PARP1 = target: T2, PARP1 (Homo sapiens, UniProt P09874); assay: PARP1 colorimetric activity assay kit (BPS Bioscience); type: biochemical; conditions: for IC50: dose-response, mean (n = 3) ± SD, r^2 in brackets; for inhibition at 1 µM: read-out: PARP1 % inhibition at 1 µM, 1 µM compound, triplicate (n = 3); for PARP1 inhibitory potency in words: compared with 3l
T2 construct: purchased BPS Bioscience (San Diego, CA)
Procedure: as §1

T2 sequence (P09874 whole entry): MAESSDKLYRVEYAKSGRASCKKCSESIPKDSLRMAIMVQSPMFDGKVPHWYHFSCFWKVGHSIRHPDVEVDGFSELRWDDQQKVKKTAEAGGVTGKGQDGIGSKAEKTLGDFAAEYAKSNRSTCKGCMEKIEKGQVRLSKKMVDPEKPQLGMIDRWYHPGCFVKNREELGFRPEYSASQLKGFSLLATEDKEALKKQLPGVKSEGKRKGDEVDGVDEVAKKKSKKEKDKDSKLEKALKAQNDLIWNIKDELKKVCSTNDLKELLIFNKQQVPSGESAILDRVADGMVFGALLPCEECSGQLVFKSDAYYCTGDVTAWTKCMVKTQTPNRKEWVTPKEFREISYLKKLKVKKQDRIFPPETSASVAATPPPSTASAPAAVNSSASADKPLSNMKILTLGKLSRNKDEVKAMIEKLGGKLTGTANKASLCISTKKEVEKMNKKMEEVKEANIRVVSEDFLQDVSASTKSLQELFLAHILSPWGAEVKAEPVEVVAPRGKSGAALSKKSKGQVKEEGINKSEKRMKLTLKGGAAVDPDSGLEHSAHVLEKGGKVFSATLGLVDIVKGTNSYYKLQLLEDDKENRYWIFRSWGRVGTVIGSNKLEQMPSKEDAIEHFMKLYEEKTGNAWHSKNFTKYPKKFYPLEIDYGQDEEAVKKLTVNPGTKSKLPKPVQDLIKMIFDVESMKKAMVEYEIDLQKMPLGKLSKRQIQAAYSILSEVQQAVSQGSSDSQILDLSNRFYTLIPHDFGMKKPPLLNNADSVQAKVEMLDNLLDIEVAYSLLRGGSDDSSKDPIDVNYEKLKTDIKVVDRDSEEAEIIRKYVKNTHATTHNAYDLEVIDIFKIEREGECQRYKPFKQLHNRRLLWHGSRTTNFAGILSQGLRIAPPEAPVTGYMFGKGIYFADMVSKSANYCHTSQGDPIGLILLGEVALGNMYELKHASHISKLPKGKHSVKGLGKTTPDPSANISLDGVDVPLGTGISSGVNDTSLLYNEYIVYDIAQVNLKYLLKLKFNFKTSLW
T1 sequence (Q9UGN5 whole entry): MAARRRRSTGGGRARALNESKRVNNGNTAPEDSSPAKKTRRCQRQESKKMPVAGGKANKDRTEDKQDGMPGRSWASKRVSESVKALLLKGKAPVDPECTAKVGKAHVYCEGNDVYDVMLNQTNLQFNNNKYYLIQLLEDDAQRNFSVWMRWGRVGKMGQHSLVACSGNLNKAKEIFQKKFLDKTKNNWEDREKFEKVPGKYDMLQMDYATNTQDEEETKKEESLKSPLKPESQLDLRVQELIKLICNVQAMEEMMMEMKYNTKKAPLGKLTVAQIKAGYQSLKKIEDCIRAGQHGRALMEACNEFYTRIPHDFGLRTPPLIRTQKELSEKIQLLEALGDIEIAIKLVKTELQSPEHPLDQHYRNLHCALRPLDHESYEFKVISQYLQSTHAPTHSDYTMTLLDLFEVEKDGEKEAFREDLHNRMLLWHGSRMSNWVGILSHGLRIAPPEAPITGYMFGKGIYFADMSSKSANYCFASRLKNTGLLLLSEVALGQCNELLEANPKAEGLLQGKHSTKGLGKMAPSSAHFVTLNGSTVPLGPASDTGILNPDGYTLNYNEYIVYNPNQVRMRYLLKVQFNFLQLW

SI, selectivity index (PARP2 over PARP1) (PARP2 [2]) | IC50 (PARP2 [2]) | IC50 (PARP1) | inhibition at 1 µM (PARP1) | melting point | PARP1 inhibitory potency in words (PARP1) | PARP1 inhibitory potency in words (PARP1; listed as 3 y) | fold lower potency compared to 3l or 3aa (PARP1; 3,4-dehydro analog vs 3l / 3aa) | Structure (SMILES) | IC50 (PARP2 [1])
– | – | – | – | – | – | – | – | O=C(Nc1cccc2c(=O)[nH]ccc12)c1ccccc1 [Compound 2] | 1500 nM
2.82 | 28.8 ± 4.2 nM | 82 ± 6.9 nM | 93.9 ± 0.2% | 171 to 172 °C | – | – | – | CC1CCN(C2CCN(C(=O)C3CNC(=O)c4cc(F)ccc43)CC2)CC1 (stereo not shown) [Compound 3ab, 7-Fluoro-4–(4-methyl-[1,4'-bipiperidine]-1'-carbonyl)-3,4-dihydroisoquinolin-1(2H)-one] | –
2.3 | 29.6 ± 6.1 nM | 69.5 ± 8.8 nM | 95.8 ± 0.7% | 141 to 142 °C | – | – | – | O=C1NCC(C(=O)N2CCC(N3CCCC3)CC2)c2ccc(F)cc21 (stereo not shown) [Compound 3ac, 7-Fluoro-4–(4-(pyrrolidin-1-yl)piperidine-1-carbonyl)-3,4-dihydroisoquinolin-1(2H)-one] | –
3.23 | 40.4 ± 5.8 nM | 128 ± 7.1 nM | 92.6 ± 1.1% | 134 to 135 °C | – | – | – | CCN(CC)C1CCN(C(=O)C2CNC(=O)c3cc(F)ccc32)CC1 (stereo not shown) [Compound 3ad, 4–(4-(Diethylamino)piperidine-1-carbonyl)-7-fluoro-3,4-dihydroisoquinolin-1(2H)-one] | –
2.61 | 20.6 ± 2.5 nM | 55 ± 9.9 nM | 96.6 ± 0.3% | 179 to 180 °C | – | – | – | O=C1NCC(C(=O)N2CCC(N3CCCCCC3)CC2)c2ccc(F)cc21 (stereo not shown) [Compound 3ae, 4-(4-(Azepan-1-yl)piperidine-1-carbonyl)-7-fluoro-3,4-dihydroisoquinolin-1(2H)-one] | –
5.05 | 19.4 ± 3.7 nM | 95.6 ± 11.5 nM | 96.9 ± 0.5% | 182 to 183 °C | – | – | – | CC1(C)CCCN(C2CCN(C(=O)C3CNC(=O)c4cc(F)ccc43)CC2)C1 (stereo not shown) [Compound 3af, 4–(3,3-Dimethyl-[1,4'-bipiperidine]-1'-carbonyl)-7-fluoro-3,4-dihydroisoquinolin-1(2H)-one] | –
4.63 | 22 ± 5.6 nM | 102 ± 9.4 nM | 95 ± 0.9% | 200 to 201 °C | – | – | – | CC1(C)CCN(C2CCN(C(=O)C3CNC(=O)c4cc(F)ccc43)CC2)CC1 (stereo not shown) [Compound 3ag, 4–(4,4-Dimethyl-[1,4'-bipiperidine]-1'-carbonyl)-7-fluoro-3,4-dihydroisoquinolin-1(2H)-one] | –
6.05 | 44.1 ± 3.9 nM | 266 ± 25 nM | 90.5 ± 0.1% | 186 to 187 °C | – | – | – | COC1CCN(C2CCN(C(=O)C3CNC(=O)c4cc(F)ccc43)CC2)CC1 (stereo not shown) [Compound 3aj, 7-Fluoro-4–(4-methoxy-[1,4'-bipiperidine]-1'-carbonyl)-3,4-dihydroisoquinolin-1(2H)-one] | –
– | – | – | 27.3 ± 6% | 163 to 164 °C | – | – | – | CN1CCN(C(=O)C2CNC(=O)c3ccccc32)CC1 (stereo not shown) [Compound 3h, 4–(4-Methylpiperazine-1-carbonyl)-3,4-dihydroisoquinolin-1(2H)-one] | –
– | – | – | 28.9 ± 5.5% | 228 to 229 °C | – | – | – | Cc1ccc(S(=O)(=O)N2CCN(C(=O)C3CNC(=O)c4ccccc43)CC2)cc1 (stereo not shown) [Compound 3i, 4–(4-Tosylpiperazine-1-carbonyl)-3,4-dihydroisoquinolin-1(2H)-one] | –
– | – | – | 45.1 ± 1.7% | 191 to 192 °C | – | – | – | O=C1NCC(C(=O)N2CCC(Cc3ccccc3)CC2)c2ccccc21 (stereo not shown) [Compound 3k, 4–(4-Benzylpiperidine-1-carbonyl)-3,4-dihydroisoquinolin-1(2H)-one] | –
– | – | – | 47.4 ± 3.7% | 171 to 172 °C | – | – | – | O=C1NCC(C(=O)N2CCSCC2)c2ccccc21 (stereo not shown) [Compound 3o, 4-(Thiomorpholine-4-carbonyl)-3,4-dihydroisoquinolin-1(2H)-one] | –
– | – | – | 27.2 ± 4.3% | 188 to 189 °C | – | – | – | O=C1NCC(C(=O)NCc2ccc(F)cc2)c2ccccc21 (stereo not shown) [Compound 3p, N-(4-Fluorobenzyl)-1-oxo-1,2,3,4-tetrahydroisoquinoline-4-carboxamide] | –
– | – | – | 32.9 ± 2.4% | 155 to 156 °C | – | – | – | COc1ccccc1N1CCN(C(=O)C2CNC(=O)c3ccccc32)CC1 (stereo not shown) [Compound 3q, 4–(4-(2-Methoxyphenyl)piperazine-1-carbonyl)-3,4-dihydroisoquinolin-1(2H)-one] | –
– | – | – | 12.5 ± 8.5% | 235 to 236 °C | – | – | – | O=C1NCC(C(=O)NCc2ccc(N3CCCCC3)cc2)c2ccccc21 (stereo not shown) [Compound 3s, 1-oxo-N-(4-(piperidin-1-yl)benzyl)-1,2,3,4-tetrahydroisoquinoline-4-carboxamide] | –
– | – | – | 44.6 ± 2.9% | 177 to 178 °C | – | – | – | O=C1NCC(C(=O)N2CCN(C3CCCC3)CC2)c2ccccc21 (stereo not shown) [Compound 3x, 4–(4-Cyclopentylpiperazine-1-carbonyl)-3,4-dihydroisoquinolin-1(2H)-one] | –
– | – | – | 54.5 ± 4.6% | 197 to 198 °C | significantly less potent | inactive | – | O=C1NCC(C(=O)N2CCN(C3CCCCC3)CC2)c2ccccc21 (stereo not shown) [Compound 3y, 4–(4-Cyclohexylpiperazine-1-carbonyl)-3,4-dihydroisoquinolin-1(2H)-one] | –
– | – | – | 45.2 ± 7.4% | 207 to 208 °C | – | – | – | O=C1NCC(C(=O)N2CCN(C3CCCCCC3)CC2)c2ccccc21 (stereo not shown) [Compound 3z, 4–(4-Cycloheptylpiperazine-1-carbonyl)-3,4-dihydroisoquinolin-1(2H)-one] | –
– | – | – | 49.1 ± 2.6% | 171 to 174 °C | – | – | approximately 10 fold | O=C(c1c[nH]c(=O)c2ccccc12)N1CCC(N2CCCCC2)CC1 [Compound 11, 4-([1,4'-Bipiperidine]-1'-carbonyl)isoquinolin-1(2H)-one] | –
